PubChem BioAssay AID248 (DTP/NCI, 2004)
“And” between values parts separate entries of the source, which are not always exact repeats. Equal values may be shown once. Inconclusive results and toxic doses are left out. No stated cut-off is given here; in the data, active means T/C of 150% or more; inactive means T/C below 125%.

System: L1210 leukemia ip in BDF1 mice, survival T/C
Test: NCI In Vivo Anticancer Drug Screen. Data for tumor model L1210 Leukemia (intraperitoneal) in B6D2F1 (BDF1) mice
Settings: endpoint: mean survival time, higher = longer survival
In short: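 Mice bearing the transplanted tumor received compound or vehicle. Survival of the treated group was divided by that of the vehicle-treated control group to give the ratio.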

[1] = dose: 50.0 mg/kg/injection, schedule: Q01DX001 (ip), vehicle: saline
[2] = dose: 50.0 mg/kg/injection, schedule: Q04DX002 (ip), vehicle: saline with Tween-80
[3] = dose: 100.0 mg/kg/injection, schedule: Q01DX001 (ip), vehicle: saline
[4] = dose: 200.0 mg/kg/injection, schedule: Q01DX001 (ip), vehicle: saline
[5] = dose: 400.0 mg/kg/injection, schedule: Q01DX001 (ip), vehicle: saline
[6] = dose: 50.0 mg/kg/injection, schedule: Q04DX003 (ip), vehicle: Klucel (hydroxypropylcellulose) (HPC)
[7] = dose: 100.0 mg/kg/injection, schedule: Q04DX003 (ip), vehicle: saline with Tween-80
[8] = dose: 200.0 mg/kg/injection, schedule: Q04DX003 (ip), vehicle: saline with Tween-80
[9] = dose: 400.0 mg/kg/injection, schedule: Q04DX003 (ip), vehicle: saline with Tween-80
[10] = dose: 100.0 mg/kg/injection, schedule: Q01DX009 (ip), vehicle: saline with Tween-80
[11] = dose: 100.0 mg/kg/injection, schedule: Q04DX003 (ip), vehicle: Klucel (hydroxypropylcellulose) (HPC)
[12] = dose: 200.0 mg/kg/injection, schedule: Q01DX009 (ip), vehicle: saline with Tween-80
[13] = dose: 200.0 mg/kg/injection, schedule: Q04DX003 (ip), vehicle: Klucel (hydroxypropylcellulose) (HPC)
[14] = dose: 400.0 mg/kg/injection, schedule: Q01DX009 (ip), vehicle: saline with Tween-80
[15] = dose: 400.0 mg/kg/injection, schedule: Q04DX003 (ip), vehicle: Klucel (hydroxypropylcellulose) (HPC)
[16] = dose: 50.0 mg/kg/injection, schedule: Q01DX009 (ip), vehicle: saline with Tween-80

Measured: T/C

ICc1cccc(CI)c1
inactive: dose: 6.25 mg/kg/injection, schedule: Q01DX009 (ip), vehicle: carboxymethylcellulose (CMC) 100 % of control | dose: 6.25 mg/kg/injection, schedule: Q04DX003 (ip), vehicle: carboxymethylcellulose (CMC) 111 % of control | dose: 12.5 mg/kg/injection, schedule: Q01DX001 (ip), vehicle: other 95 % of control | dose: 12.5 mg/kg/injection, schedule: Q01DX009 (ip), vehicle: carboxymethylcellulose (CMC) 94 % of control | dose: 12.5 mg/kg/injection, schedule: Q04DX003 (ip), vehicle: carboxymethylcellulose (CMC) 97 % of control | dose: 25.0 mg/kg/injection, schedule: Q01DX001 (ip), vehicle: other 95 % of control | dose: 25.0 mg/kg/injection, schedule: Q04DX003 (ip), vehicle: carboxymethylcellulose (CMC) 92 % of control

O=C1OC(C(O)CO)C(O)C1O (centres undefined)
inactive: dose: 25.0 mg/kg/injection, schedule: Q04DX002 (ip), vehicle: saline with Tween-80 101 % of control | [1] 94 % of control | [2] 101 % of control | [3] 100 % of control | dose: 100.0 mg/kg/injection, schedule: Q04DX002 (ip), vehicle: saline with Tween-80 96 % of control | [4] 100 % of control | dose: 200.0 mg/kg/injection, schedule: Q04DX002 (ip), vehicle: saline with Tween-80 101 % of control | [5] 92 % of control

CC(=O)c1ccc(NCc2cnc3nc(N)nc(N)c3n2)cc1
inactive: dose: 20.0 mg/kg/injection, schedule: Q01DX009 (ip), vehicle: Klucel (hydroxypropylcellulose) (HPC) 102 % of control | dose: 40.0 mg/kg/injection, schedule: Q01DX009 (ip), vehicle: Klucel (hydroxypropylcellulose) (HPC) 105 % of control | dose: 80.0 mg/kg/injection, schedule: Q01DX009 (ip), vehicle: Klucel (hydroxypropylcellulose) (HPC) 105 % of control

O=C(O)c1ccccc1C(=O)Nc1cccc(C(F)(F)F)c1
inactive: dose: 50.0 mg/kg/injection, schedule: Q01DX009 (ip), vehicle: Klucel (hydroxypropylcellulose) (HPC) 101 % of control | dose: 100.0 mg/kg/injection, schedule: Q01DX009 (ip), vehicle: Klucel (hydroxypropylcellulose) (HPC) 101 % of control | dose: 200.0 mg/kg/injection, schedule: Q01DX009 (ip), vehicle: Klucel (hydroxypropylcellulose) (HPC) 99 % of control

O=[N+]([O-])/C=C/c1cccc([N+](=O)[O-])c1
inactive: dose: 25.0 mg/kg/injection, schedule: Q04DX003 (ip), vehicle: Klucel (hydroxypropylcellulose) (HPC) 103 % of control | [6] 103 % of control

CCSc1nc(C=O)c(Cc2ccc(Br)cc2)c(=O)[nH]1
inactive: [7] 106 % of control | [8] 103 % of control | [9] 106 % of control

CC(=O)c1ccccc1OS(=O)(=O)c1ccc([N+](=O)[O-])cc1
inactive: [10] 105 % of control | [11] 105 % of control | [12] 111 % of control | [13] 100 % of control | [14] 114 % of control | [15] 103 % of control

CCOC(=O)CN=CC1CCC=CO1 (centres undefined)
inactive: [10] 97 % of control | [7] 93 % of control | [12] 103 % of control | [8] 95 % of control | [14] 108 % of control | [9] 93 % of control

CCCCCCCCCC=C(c1cccc2ccccc12)c1cccc2ccccc12
inactive: dose: 100.0 mg/kg/injection, schedule: Q01DX001 (ip), vehicle: other 93 % of control | dose: 200.0 mg/kg/injection, schedule: Q01DX001 (ip), vehicle: other 96 % of control | dose: 400.0 mg/kg/injection, schedule: Q01DX001 (ip), vehicle: other 102 % of control

O=C(O)c1cc(S(=O)(=O)Cl)cc(S(=O)(=O)Cl)c1
inactive: dose: 75.0 mg/kg/injection, schedule: Q01DX001 (ip), vehicle: saline 107 % of control

Cc1c(C(=O)O)cc([N+](=O)[O-])cc1[N+](=O)[O-]
inactive: [16] 103 % of control | [10] 97 % of control | [12] 93 % of control

NC1CCC(OC(=O)C23CC4CC(CC(C4)C2)C3)CC1 (centres undefined)
inactive: dose: 100.0 mg/kg/injection, schedule: Q01DX001 (ip), vehicle: saline with Tween-80 94 % of control

O=[N+]([O-])c1ccc(N/N=C/C#Cc2ccccc2)c([N+](=O)[O-])c1
inactive: [2] 88 % of control

CN(C)CCOC(c1ccccc1)c1ccccc1
inactive: dose: 3.12 mg/kg/injection, schedule: Q01DX009 (ip), vehicle: saline 92 % of control and 96 % of control | dose: 6.25 mg/kg/injection, schedule: Q01DX009 (ip), vehicle: saline 102 % of control and 107 % of control | dose: 12.5 mg/kg/injection, schedule: Q01DX009 (ip), vehicle: saline 100 % of control and 114 % of control | dose: 25.0 mg/kg/injection, schedule: Q01DX009 (ip), vehicle: saline 100 % of control and 102 % of control | dose: 25.0 mg/kg/injection, schedule: Q04DX003 (ip), vehicle: saline 97 % of control | dose: 50.0 mg/kg/injection, schedule: Q01DX009 (ip), vehicle: saline 117 % of control and 91 % of control | dose: 50.0 mg/kg/injection, schedule: Q04DX003 (ip), vehicle: saline 111 % of control

Cc1ccc(Nc2nc(N)nc(N)c2C=O)cc1C
inactive: [1] 109 % of control | [3] 109 % of control | [4] 100 % of control | [5] 97 % of control

CCCCCCCCCCCCCC(C)C
inactive: [3] 96 % of control | [4] 102 % of control | [5] 94 % of control

COC(=O)c1oc(C(=O)OC)c(OCc2ccccc2)c1OCc1ccccc1
inactive: [11] 103 % of control | [13] 106 % of control | [15] 95 % of control

C1CCC2(CC1)NN2
inactive: dose: 50.0 mg/kg/injection, schedule: Q01DX001 (ip), vehicle: water 101 % of control | dose: 100.0 mg/kg/injection, schedule: Q01DX001 (ip), vehicle: water 104 % of control | dose: 200.0 mg/kg/injection, schedule: Q01DX001 (ip), vehicle: water 98 % of control | dose: 400.0 mg/kg/injection, schedule: Q01DX001 (ip), vehicle: water 103 % of control

COc1ccc(C(c2ccccc2)C(CO)CO)cc1 (centres undefined)
inactive: dose: 75.0 mg/kg/injection, schedule: Q04DX002 (ip), vehicle: Klucel (hydroxypropylcellulose) (HPC) 90 % of control | dose: 150.0 mg/kg/injection, schedule: Q04DX002 (ip), vehicle: Klucel (hydroxypropylcellulose) (HPC) 93 % of control | dose: 300.0 mg/kg/injection, schedule: Q04DX002 (ip), vehicle: Klucel (hydroxypropylcellulose) (HPC) 87 % of control

c1ccc(CCC[P+](c2ccccc2)(c2ccccc2)c2ccccc2)cc1
inactive: dose: 2.5 mg/kg/injection, schedule: Q01DX009 (ip), vehicle: saline 113 % of control | dose: 5.0 mg/kg/injection, schedule: Q01DX001 (ip), vehicle: saline 101 % of control | dose: 5.0 mg/kg/injection, schedule: Q01DX009 (ip), vehicle: saline 118 % of control | dose: 10.0 mg/kg/injection, schedule: Q01DX001 (ip), vehicle: saline 95 % of control | dose: 10.0 mg/kg/injection, schedule: Q01DX009 (ip), vehicle: saline 102 % of control | dose: 20.0 mg/kg/injection, schedule: Q01DX001 (ip), vehicle: saline 117 % of control | dose: 40.0 mg/kg/injection, schedule: Q01DX001 (ip), vehicle: saline 117 % of control

CCC(CC)NC(CC)COC(=O)c1ccc(N)cc1 (centres undefined)
inactive: dose: 75.0 mg/kg/injection, schedule: Q01DX001 (ip), vehicle: other 97 % of control | dose: 150.0 mg/kg/injection, schedule: Q01DX001 (ip), vehicle: other 107 % of control

Cc1cccc(C(C)(C)C#N)c1
inactive: [16] 92 % of control | [10] 101 % of control | [12] 90 % of control

O=C(O)Cc1ccc(Cl)cc1Cl
inactive: [6] 93 % of control | [11] 98 % of control | [13] 98 % of control

CC1(C)C2CC3CC(C(=O)O)C(C(=O)O)CC3(C2)C1Br (centres undefined)
inactive: [11] 101 % of control | [13] 101 % of control | [15] 101 % of control
